# Measured values as given in patent US12133846B2, “Electrophilic androgen receptor (AR) antagonists for AR downregulation and ferroptosis induction in cancer cells” (priority 2019, dated 2024).
# Read-outs that look alike come from different tables or passages of the source.
# Assays:
# C4-2 cells [1] = settings: 5 μM, DHT 1 nM, charcoal stripped FBS, 6 days
# Description: The medium and drug were refreshed every two days.
# The anti-PCa potential of 2-63 was further characterized by assessing its inhibitory effects on DHT-stimulated C4-2 cell growth. […] C4-2 cells were cultured in charcoal-stripped, steroid-free medium and cells were stimulated with androgen.
# [2] = tested on: AR, AR-V7, c-Myc, HO-1, Hsp70; test: Western blotting under BSO combination, VCaP cells; type: cell-based
# Description: (§1) It was first investigated if iron chelators or antioxidants could rescue the viability of drug combination-treated cells. […] HO-1 catalyzes the decomposition of heme into carbon monoxide, biliverdin, and Fe^2+. […] Both Fer-1 and the lipophilic antioxidant α-Toc can effectively scavenge radicals in phosphatidylcholine lipid bilayers and break the redox cycle that generates lipid hydroperoxide.
# (§2) Western Blotting. […] Proteins in cell lysates (40 μg) were separated using electrophoresis on SDS-PAGE and transferred onto PVDF (polyvinylidenedifluoride) membranes. Membranes were blocked in 5% fat-free milk followed by incubation with primary antibodies overnight at 4° C., and the secondary horseradish peroxidase-conjugated anti-rabbit or anti-mouse antibodies. The blots were developed in the Enhanced Chemiluminescence mixture and detected by ImageQuant™ LAS 4000 imaging system (GE). Density of protein bonds were calculated and analyzed by using imageJ software downloaded from the National Institute of Health website.
# VCaP cells [3] = test: Ferroptosis rescue/enhancement of 2-63 plus BSO, MTT, VCaP cells; type: cell-based; settings: for rescue of 2-63 plus BSO-caused viability loss, VCaP cells: BSO 100 μM 16 h, 2-63 2.5 μM 24 h, DFO 100 μM, α-Toc 100 μM, Fer-1 0.5 μM, ZnPP 3 μM
# Text: as §1
# 22Rv1 cells [4] = test: Ferroptosis rescue of 2-63 plus BSO, MTT, 22Rv1 cells; type: cell-based; settings: BSO 100 μM 16 h, 2-63 5 μM 24 h; DFO 100 μM, α-Toc 100 μM, Fer-1 0.5 μM, ZnPP 3 μM
# Text: as §1
# VCaP cells [5] = test: 3-79 plus BSO, MTT viability, VCaP cells; type: cell-based; settings: for rescue of 3-79 plus BSO-induced viability loss, VCaP cells: 3-79 10 μM, BSO 100 μM, DFO 100 μM, α-Toc 100 μM, Fer-1 0.5 μM
# Description: 3-79 and BSO effectively reduce the viability of VCaP cells. […] The viability loss of VCaP cells is rescued by antioxidants and iron chelators. […] Data (n=6-8) represent mean±SD obtained from MTT assay. Statistical significance was assessed by using two-tailed Student's t-tests. ***, P<0.001.
# VCaP cells [6] = test: BSO pretreatment plus drug, MTT viability, VCaP cells; settings: drug 2.5 μM, BSO pretreatment 16 h, 24 h
# Description: (§4) Cell viability was then assessed using an MTT assay.
# (§5) PCa cells (6×10^3 cells/well) were seeded into 96-well plates overnight and then treated with indicated compounds at indicated concentrations and time durations. The MTT (3-(4, 5-Dimethylthiazol-2-yl)-2,5-diphenyltetrazolium bromide) assay was performed according to the standard protocol. Briefly, MTT (0.5 mg/mL) was incubated with cells at 37° C. for 3 hours. Supernatant was removed, followed by the addition of dimethyl DMSO (100 μl). After incubation for 30 minutes at 37° C., absorbance was read at 570 nm on a microplate reader.
# 22Rv1 cells [7] = test: MTT viability assay, 22Rv1 cells; type: cell-based; settings: 5 μM, 72 h
# Text: (§3) Biological Characterization. ITC-ARi hybrid drugs effectively reduce the viability of PCa cells. By using an MTT assay, it was first examined if the newly synthesized hybrid drugs affect the viability of CRPC-relevant PCa cells. PCa VCaP cells naturally express abundant wild type FL AR as well as AR splice variants (e.g., AR-V7). These cells were, therefore, used as one of the cell culture models in this work to investigate the drug-caused viability loss and AR downregulation.
# C4-2 cells [8] = settings: for potentiation by BSO compared to 2-63, C4-2 cells: drug 2.5 μM, BSO pretreatment 16 h, 24 h
# Description: as §4, §5
# 22Rv1 cells [9] = test: BSO pretreatment plus drug, MTT viability, 22Rv1 cells; settings: drug 2.5 μM, BSO pretreatment 16 h, 24 h
# Description: as §4, §5
# C4-2 cells [10] = test: MTT viability assay, C4-2 cells; type: cell-based; settings: 5 μM, 72 h
# Text: as §3
# VCaP cells [11] = test: MTT viability assay, VCaP cells; type: cell-based; settings: 72 h, full media, MTT, read-out: IC50, viability of VCaP cells
# Text: as §3
# [12] = tested on: AR transcriptional activity in MDA-kb2 cells; test: cells; type: cell-based; settings: DHT 1 nM; for suppression of DHT-stimulated luciferase activity: 1-5 μM; for AR inhibition at higher concentrations relative to comparators: 2.5 and 5 μM; for inhibition at 1 µM: MDA-kb2, 1 μM compound, read-out: inhibition of DHT-stimulated luciferase activity
# Description: MDA-kb2-cell-based ARE luciferase assays were performed to assess the influence of 2-63 and related compounds on AR transcriptional activity. […] Upon androgen stimulation and addition of a luciferase substrate, […], and the intensity is proportional to the extent of AR activation. An agent that either antagonistically competes with DHT for AR binding or reduces the expression of AR diminishes luciferase activity/fluorescence signal in this experimental system. […] 10b (an alcohol) and 11 b (an azide) are synthetic precursors of the ITC hybrid 12b.
# Luciferase Assay. […] For all procedures, cells were incubated at CO2 free condition. Steady-Glo® (Promega Corp., Madison, WI) reagent was added to culture media with shaking for 10 min. Samples (100 μL) were transferred to an opaque 96-well white plate, and luminescence was measured using a luminometer.
# [13] = tested on: acetylation of α-tubulin and histone H3 (markers for HDAC6 and nuclear HDAC inhibition); test: Western blotting of acetylation markers in VCaP cells; type: cell-based; settings: 16 h, 2-63 and 12b 5 and 15 μM, SAHA 1 μM; for α-tubulin acetylation: SFN 15 μM
# Description: as §2
# Hsp90, Hsp70, HO-1 = test: Western blotting of Hsp90, Hsp70 and HO-1 in VCaP cells; type: cell-based; settings: 16 h, 5 and 15 μM
# Description: as §2
molecule,measurement,setting,value
"CNC(=O)c1ccc(N2C(=S)N(c3ccc(C#N)c(C(F)(F)F)c3)C(=O)C2(C)C)cc1F [Enz, 4-(3-(4-cyano-3-(trifluoromethyl)phenyl)-5,5-dimethyl-4-oxo-2-thioxoimidazolidin-1-yl)-2-fluoro-N-methyl benzamide, reference compound]",viability reduction of DHT-stimulated C4-2 cells,C4-2 cells [1],25%
same,"expression of examined cellular markers (AR, c-Myc, HO-1)","[2]; VCaP, Enz 10 μM, with or without BSO 100 μM, except upregulating AR-V7",did not affect
"Cc1c(C)c2c(c(C)c1O)CC[C@@](C)(CCC[C@H](C)CCC[C@H](C)CCCC(C)C)O2 [α-Toc, α-tocopherol]","rescue of 2-63 plus BSO-caused viability loss, VCaP cells",VCaP cells [3],rescued
same,"rescue of 2-63 plus BSO-caused viability loss, 22Rv1 cells",22Rv1 cells [4],rescued
same,"rescue of 3-79 plus BSO-induced viability loss, VCaP cells",VCaP cells [5],rescued
"CC(=O)NC(CSC(=S)NCCc1ccccc1)C(=O)O (stereo not shown) [PEITC-NAC, reference compound]","potentiation by BSO compared to 2-63, VCaP cells",VCaP cells [6],more limited
same,"relative potency in viability reduction, 22Rv1 cells",22Rv1 cells [7],12b>2-63>PEITC-NAC
same,"potentiation by BSO compared to 2-63, C4-2 cells",C4-2 cells [8],more limited
same,"potentiation by BSO compared to 2-63, 22Rv1 cells",22Rv1 cells [9],more limited
same,"relative potency in viability reduction, C4-2 cells",C4-2 cells [10],12b>2-63>PEITC-NAC
same,IC50,VCaP cells [11],10.1 µM
"CC1(C)C(=O)N(c2ccc(C#N)c(C(F)(F)F)c2)C(=S)N1c1ccc(CCCCN=C=S)nc1 [12a, 4-(3-(6-(4-Isothiocyanatobutyl)pyridin-3-yl)-4,4-dimethyl-5-oxo-2-thioxoimidazolidin-1-yl)-2-(trifluoromethyl) benzonitrile]",IC50,"VCaP cells [11]; Homo sapiens, VCaP",4.85 µM
"C[C@]12CCC(=O)C[C@@H]1CC[C@@H]1[C@@H]2CC[C@]2(C)[C@@H](O)CC[C@@H]12 [DHT, 5α-dihydrotestosterone, reference compound]",increase of luciferase activity,[12]; 24 h,8.6 fold
"O=C(CCCCCCC(=O)Nc1ccccc1)NO [SAHA, suberoylanilide hydroxamic acid, reference compound]",histone H3 acetylation,[13],induced notable global acetylation
same,α-tubulin acetylation,[13],induced notable global acetylation
"CCOC(=O)c1ccc(NC2CCCCC2)c(N)c1 [Fer-1, ferrostatin-1]","rescue of 2-63 plus BSO-caused viability loss, VCaP cells",VCaP cells [3],rescued
same,"rescue of 2-63 plus BSO-caused viability loss, 22Rv1 cells",22Rv1 cells [4],rescued
same,"rescue of 3-79 plus BSO-induced viability loss, VCaP cells",VCaP cells [5],rescued
same,"rescue of AR/AR-V7 under 2-63 plus BSO, VCaP cells","[2]; DFO 100 μM, Fer-1 1 μM, BSO 100 μM, 2-63 2.5 μM, 24 h",failed to rescue AR/AR-V7
ferric ammonium citrate,"effect of exogenous iron on BSO plus 2-63 combination, VCaP cells","VCaP cells [3]; ferric ammonium citrate 25 μM, BSO 100 μM, 2-63 1 μM",exacerbated the lethal effect
same,"effect of exogenous iron on BSO plus 2-63 combination, C4-2 cells","C4-2 cells [8]; ferric iron 25 μM, BSO 100 μM, 2-63 0.6-5 μM",significantly enhanced the suppressive effects
"C[S+]([O-])CCCCN=C=S (stereo not shown) [SFN, sulforaphane, reference compound]",α-tubulin acetylation,[13],upregulated
same,HO-1 protein level,"Hsp90, Hsp70, HO-1",dose-dependently upregulated
same,Hsp70 protein level,"Hsp90, Hsp70, HO-1",significantly induced
same,Hsp90 protein level,"Hsp90, Hsp70, HO-1",did not change
"C=CC1=C(C)c2cc3[n-]c(cc4[n-]c(cc5nc(cc1n2)C(C)=C5C=C)c(C)c4CCC(=O)O)c(CCC(=O)O)c3C.[Zn+2] [ZnPP, Zinc(II) protoporphyrin IX]","rescue of 2-63 plus BSO-caused viability loss, VCaP cells",VCaP cells [3],notable cytoprotective effects
same,"rescue of 2-63 plus BSO-caused viability loss, 22Rv1 cells",22Rv1 cells [4],notable cytoprotective effects
"CC1(C)C(=O)N(c2ccc(C#N)c(C(F)(F)F)c2)C(=S)N1c1ccc(CCCCCCO)nc1 [10b, 4-(3-(6-(6-Hydroxyhexyl)pyridin-3-yl)-4,4-dimethyl-5-oxo-2-thioxoimidazolidin-1-yl)-2-(trifluoromethyl) benzonitrile]",suppression of DHT-stimulated luciferase activity,[12],decreased luciferase activity in a dose-dependent manner
same,AR inhibition at higher concentrations relative to comparators,[12],Enz-comparable
same,inhibition at 1 µM,[12],60%
"CN(C)C/C=C/C(=O)Nc1ccc(N2C(=S)N(c3ccc(C#N)c(C(F)(F)F)c3)C(=O)C2(C)C)cc1F [3-79, (E)-N-(4-(3-(4-cyano-3-(trifluoromethyl)phenyl)-5,5-dimethyl-4-oxo-2-thioxoimidazolidin-1-yl)-2-fluorophenyl)-4-(dimethylamino)but-2-enamide]",potency of 3-79 in viability suppression with BSO,"VCaP cells [5]; VCaP, 3-79 10 μM plus BSO 100 μM",increased under GSH deficient conditions
"CC1(C)C(=O)N(c2ccc(C#N)c(C(F)(F)F)c2)C(=S)N1c1ccc(CCCCCCN=[N+]=[N-])nc1 [11b, 4-(3-(6-(6-Azidohexyl)pyridin-3-yl)-4,4-dimethyl-5-oxo-2-thioxoimidazolidin-1-yl)-2-(trifluoromethyl) benzonitrile]","potentiation by BSO compared to 2-63, VCaP cells",VCaP cells [6],more limited
same,"potentiation by BSO compared to 2-63, C4-2 cells",C4-2 cells [8],more limited
same,"potentiation by BSO compared to 2-63, 22Rv1 cells",22Rv1 cells [9],more limited
same,suppression of DHT-stimulated luciferase activity,[12],decreased luciferase activity in a dose-dependent manner
same,AR inhibition at higher concentrations relative to comparators,[12],Enz-comparable
same,inhibition at 1 µM,[12],60%
